Columns and labels:
A549 cells = test: Cisplatin treatment of A549 cells with or without ME2 knockdown, trypan blue count; format: cell-based, human; settings: 20 μM cisplatin, 72 h
Experimental: ME2 knockdown and control cells were plated in 6-well plates, and 24 h later, the cell were treated with 20 μM cisplatin. After 72 h, cells were stained with trypan blue and live cells were counted. […] Approximately 5×10^6 ME2 deficient cells from ME2 specific shRNA or control pLKO cells were subcutaneously implanted into female athymic nude mice as described in Materials and Methods. Tumor size was measured and calculated. C: Depletion of ME2 inhibits mucin-1 and vimentin expression and increase differentiation marker E-cadherin and ZO-1 expression in vivo.

A549 xenograft tumors = test: Cisplatin treatment of xenograft tumors from wild type and ME2 knockdown A549 cells; format: in vivo, athymic nude mice
Experimental: ME2 knockdown and control cells were plated in 6-well plates, and 24 h later, the cell were treated with 20 μM cisplatin. After 72 h, cells were stained with trypan blue and live cells were counted. […] Approximately 5×10^6 ME2 deficient cells from ME2 specific shRNA or control pLKO cells were subcutaneously implanted into female athymic nude mice as described in Materials and Methods. Tumor size was measured and calculated. C: Depletion of ME2 inhibits mucin-1 and vimentin expression and increase differentiation marker E-cadherin and ZO-1 expression in vivo. Animal experiments were performed under federal guidelines and approved by the Institutional Animal Care and Use Committee (IACUC) of the Beth Israel Deaconess Medical Center (Approval number 0342007). A549 xenografts in nude mice were generated by following the description of […] et al., in Biochem. Pharmacol. 72: 671-680 (2006). Briefly, approximately 10^7 ME2 deficient or control A549 cells resuspended in 200 μl of a serum-free culture medium/Matrigel mixture (1:1) were subcutaneously injected into the right and left flanks of male nude/nu/nu athymic mice, respectively. Tumor-bearing mice were sacrificed after 6-8 weeks and tumor masses were measured or imaged before excision. […]

K562 cell = settings: supplementation; Ren et al., PLoS One 5 (2010); cited from earlier work

Compound: N.N.[Cl][Pt][Cl] [cisplatin]
- sensitivity of A549 cells to cisplatin treatment with ME2 deficiency (A549 cells): increased the sensitivity
- later growth of ME2 knockdown tumors (resumed at about 350 mm^3) (A549 xenograft tumors; ME2 knockdown A549 xenografts): prevent this later tumor growth
- E-cadherin and mucin-1 expression in vivo (A549 xenograft tumors; combination of ME2 depletion and cisplatin): affected

Compound: O=C([O-])CC(O)C(=O)[O-].[Na+].[Na+] (stereo not shown) [sodium malate]
- K562 cell differentiation (K562 cell): failed to induce

— patent US9931313B2, “Methods of treating proliferative disorders with malate or derivatives thereof” (Beth Israel Deaconess Medical Center, Inc., priority 2012, dated 2018)
